These results are taken from ChEMBL document CHEMBL1146550, “Sesquiterpenoid derivatives from Gonospermum elegans and their cytotoxic activity for HL-60 human promyelocytic cells” (J Nat Prod, 2003).

Active and inactive are the calls of the source. The calls are words filed in the database; no cut-off is given here.

Test [1] deals with HL-60. The test is described as follows: Induction of apoptosis in human HL60 cells assessed as apoptotic cells after 12 hrs by Hoechst staining-based fluorescence microscopy. The test is classed as functional, cell-based.
Test [2] deals with HL-60. The test is described as follows: Induction of apoptosis in human HL60 cells assessed as PARP cleavage at 1 to 10 uM after 12 hrs by SDS-PAGE. In kind it is functional, cell-based.
Test [3] has as its system HL-60. The test is described as follows: Induction of apoptosis in human HL60 cells assessed as […] DNA fragmentation at 10 uM after 12 hrs by agarose gel electrophoresis. In kind it is functional, cell-based.
The subject of test [4] is HL-60. Put plainly: Induction of apoptosis in human HL60 cells assessed as apoptotic cells at 10 uM after 12 hrs by Hoechst staining-based fluorescence microscopy. The test is classed as functional.
Test [5] relates to HL-60. Put plainly: Antiproliferative activity against human HL60 cells after 24 hrs by MTT assay. The test is classed as functional, cell-based. Conditions: for IC50: HL-60, 24 h. Background: Tetrazolium dyes change colour on reduction, which living cells bring about.
Test [6] deals with HL-60. Put plainly: Induction of apoptosis in human HL60 cells assessed as PARP cleavage at 1 to 10 uM after 8 hrs by SDS-PAGE. In kind it is functional, cell-based.
The test system of test [7] is HL-60. The test is described as follows: Induction of apoptosis in human HL60 cells assessed as […] DNA fragmentation at 1 uM after 12 hrs by agarose gel electrophoresis. The test is classed as functional, cell-based.
Test [8] concerns HL-60. Put plainly: Induction of apoptosis in human HL60 cells assessed as apoptotic cells at 1 uM after 12 hrs by Hoechst staining-based fluorescence microscopy. In kind it is functional.
The test system of test [9] is HL-60. Put plainly: Induction of apoptosis in human HL60 cells assessed as peripheral nuclear chromatin condensation at 0.1 to 3 uM after 12 hrs by Hoechst staining-based fluorescence microscopy. In kind it is functional, cell-based.
Test [10] deals with HL-60. Put plainly: Induction of apoptosis in human HL60 cells assessed as PARP cleavage at 0.1 to 1 uM after 8 hrs by SDS-PAGE. In kind it is functional, cell-based.
Test [11] has as its system HL-60. Put plainly: Induction of apoptosis in human HL60 cells assessed as PARP cleavage at 0.1 to 1 uM after 12 hrs by SDS-PAGE. The test is classed as functional, cell-based.

By IC50 is commonly meant the midpoint of a concentration-inhibition curve. Higher therefore signals a need for much substance. For `C=C1C(=O)O[C@H]2C[C@]3(C)[C@@H](OC(C)=O)CCC(=C)[C@@H]3[C@@H](OC(C)=O)[C@H]12`, the Activity result with HL-60 [1] was “Dose-dependent effect”; with HL-60 [4], 14.3%; in the test on HL-60 [5], “Dose-dependent effect”. In addition, the result in the test with HL-60 [2], in the test with HL-60 [3] and in the test with HL-60 [6] was Active. For the same molecule, the IC50 in the test on HL-60 [5] was 5.3 µM.
For the molecule `C=C1CC[C@H](OC(C)=O)/C(C)=C\[C@@H]2OC(=O)C(=C)[C@H]2[C@H](OC(C)=O)C1=O`, the outcome with HL-60 [7], in the test with HL-60 [9], with HL-60 [10] and with HL-60 [11] was Active. Moreover, the Activity is 25.9% with HL-60 [8], “Dose-dependent effect” in the test with HL-60 [1] and “Dose-dependent effect” with HL-60 [5]. The same molecule came in with a half-inhibitory concentration (IC50) in the test with HL-60 [5] of 0.25 µM.
With `C=C1C(=O)O[C@H]2C[C@@]3(C)[C@H](C(=C)CC[C@@H]3O)[C@@H](O)[C@H]12` [ELEGALACTONE A], in the test on HL-60 [5], half-maximal inhibition (IC50) required 55.1 µM.
